Experimental data taken from ChEMBL document CHEMBL3864162, “Discovery of potent inhibitors of the lysophospholipase autotaxin” (Bioorg Med Chem Lett, 2016).
Values belong to the compound of their own block, whether it stands above or below them.

Key:
Autotaxin [1] = target: T1, Autotaxin (Homo sapiens, UniProt Q13822); experiment: Inhibition of ATX in human plasma assessed as decrease in hydrolysis of lysophosphatidylcholine by measuring choline release after 24 hrs by horseradish peroxidase/choline oxidase-coupled assay; format: cell-free
[2] = Volume of distribution at steady state in CD1 mouse at 1 mg/kg, iv administered as bolus dose measured up to 7 hrs by UPLC/MS/MS spectrometry analysis; format: ADME, organism-based; conditions: in vivo, read-out: Vdss
[3] = Blood clearance in CD1 mouse at 1 mg/kg, iv administered as bolus dose measured up to 7 hrs by UPLC/MS/MS spectrometry analysis; format: ADME, organism-based
[4] = Intrinsic clearance in CD1 mouse liver microsomes assessed per gram of liver at 1 uM in presence of NADPH regenerating system measured up to 45 mins by UPLC/MS/MS analysis; format: ADME; conditions: 0.75 h
[5] = Half life in CD1 mouse blood at 1 mg/kg, iv administered as bolus dose measured up to 7 hrs by UPLC/MS/MS spectrometry analysis; format: ADME, organism-based
Autotaxin [6] = target: T1, Autotaxin; experiment: Inhibition of human recombinant ATX using Rac-1-Palmitoyl-glycero-3-phosphocholine as substrate incubated for 2 hrs using ADHP fluorogenic peroxidase substrate by horseradish peroxidase/choline oxidase-coupled assay
[7] = Intrinsic clearance in human liver microsomes assessed per gram of liver at 1 uM in presence of NADPH regenerating system measured up to 45 mins by UPLC/MS/MS analysis; format: ADME; conditions: 0.75 h
[8] = Volume of distribution at steady state in CD1 mouse at 0.5 mg/kg, iv administered as bolus dose measured up to 7 hrs by UPLC/MS/MS spectrometry analysis; format: ADME, organism-based; conditions: in vivo, read-out: Vdss
[9] = Blood clearance in CD1 mouse at 0.5 mg/kg, iv administered as bolus dose measured up to 7 hrs by UPLC/MS/MS spectrometry analysis; format: ADME, organism-based
[10] = Half life in CD1 mouse blood at 0.5 mg/kg, iv administered as bolus dose measured up to 7 hrs by UPLC/MS/MS spectrometry analysis; format: ADME, organism-based
Autotaxin [11] = target: T1, Autotaxin; experiment: Inhibition of ATX in human plasma assessed as decrease in LPA C18:1 levels after 24 hrs by horseradish peroxidase/choline oxidase-coupled assay
[12] = Intrinsic clearance in rat liver microsomes assessed per gram of liver; format: ADME
in vivo [13] = conditions: Balb-c nu/nu, mouse, blood, po, 100 mg/kg
[14] = Half life in Balb-c nu/nu mouse blood at 30 mg/kg, po measured up to 7 hrs by UPLC/MS/MS spectrometry analysis; format: ADME, organism-based
[15] = AUC in Balb-c nu/nu mouse at 30 mg/kg, po measured up to 7 hrs by UPLC/MS/MS spectrometry analysis; format: ADME, organism-based; set-up: time < 7 hr, dose 30 mg/kg, route oral; conditions: in vivo
Mus musculus [16] = species: Mus musculus; experiment: animal or person; conditions: Balb-c, Plasma
Description: Reduction in plasma LPA C20:4 levels in po dosed Balb-c nu/nu mouse xenografted with human MDA-MB-231-luc cells by UPLC/MS/MS analysis

in vivo [17] = conditions: Sprague-Dawley, rat, po, 3 mg/kg
Mus musculus [18] = experiment: Reduction in plasma LPA C20:4 levels in Balb-c nu/nu mouse xenografted with human MDA-MB-231-luc cells at 30 to 100 mg/kg, po by UPLC/MS/MS analysis relative to control; format: functional
Mus musculus [19] = experiment: Toxicity in Balb-c nu/nu mouse at 100 mg/kg, po bid administered for 5 days; format: organism-based; conditions: in vivo, 120 h
[20] = AUC in Balb-c nu/nu mouse at 10 mg/kg, po measured up to 7 hrs by UPLC/MS/MS spectrometry analysis; format: ADME, organism-based; set-up: time < 7 hr, dose 10 mg/kg, route oral; conditions: in vivo
[21] = Cmax in Balb-c nu/nu mouse at 10 mg/kg, po measured up to 7 hrs by UPLC/MS/MS spectrometry analysis; format: ADME, organism-based; set-up: dose 10 mg/kg, route oral; conditions: in vivo
Mus musculus [22] = species: Mus musculus; experiment: animal or person; conditions: Balb-c, Plasma; remark: listed apart in the source
Description: Reduction in plasma LPA C18:2 levels in po dosed Balb-c nu/nu mouse xenografted with human MDA-MB-231-luc cells by UPLC/MS/MS analysis

Mus musculus [23] = experiment: Reduction in plasma LPA C18:1 levels in Balb-c nu/nu mouse xenografted with human MDA-MB-231-luc cells at 30 to 100 mg/kg, po by UPLC/MS/MS analysis relative to control; format: functional
[24] = Half life in Balb-c nu/nu mouse blood at 100 mg/kg, po measured up to 7 hrs by UPLC/MS/MS spectrometry analysis; format: ADME, organism-based
Mus musculus [25] = experiment: Reduction in plasma LPA C18:2 levels in Balb-c nu/nu mouse xenografted with human MDA-MB-231-luc cells at 30 to 100 mg/kg, po by UPLC/MS/MS analysis relative to control; format: functional
[26] = Fraction unbound in mouse plasma; format: ADME, cell-free
[27] = Cmax in Balb-c nu/nu mouse at 100 mg/kg, po measured up to 7 hrs by UPLC/MS/MS spectrometry analysis; format: ADME, organism-based; set-up: dose 100 mg/kg, route oral; conditions: in vivo
[28] = Half life in Balb-c nu/nu mouse blood at 10 mg/kg, po measured up to 7 hrs by UPLC/MS/MS spectrometry analysis; format: ADME, organism-based
[29] = AUC in Balb-c nu/nu mouse at 100 mg/kg, po measured up to 7 hrs by UPLC/MS/MS spectrometry analysis; format: ADME, organism-based; set-up: dose 100 mg/kg, time < 7 hr, route oral; conditions: in vivo
Mus musculus [30] = experiment: Reduction in plasma LPA C16:0 levels in Balb-c nu/nu mouse xenografted with human MDA-MB-231-luc cells at 30 to 100 mg/kg, po by UPLC/MS/MS analysis relative to control; format: functional
[31] = Fraction unbound in rat plasma; format: ADME, cell-free
[32] = Blood clearance in Sprague-Dawley rat at 1 mg/kg, iv administered as bolus dose measured up to 20 hrs by UPLC/MS/MS spectrometry analysis; format: ADME, organism-based
Mus musculus [33] = species: Mus musculus; experiment: animal or person; conditions: Balb-c, Plasma; remark: listed apart in the source
Description: Reduction in plasma LPA C18:1 levels in po dosed Balb-c nu/nu mouse xenografted with human MDA-MB-231-luc cells by UPLC/MS/MS analysis

in vivo [34] = conditions: Balb-c nu/nu, mouse, blood, po, 30 mg/kg
Mus musculus [35] = species: Mus musculus; experiment: animal or person; conditions: Balb-c, Plasma; remark: listed apart in the source
Description: Reduction in plasma LPA C16:0 levels in po dosed Balb-c nu/nu mouse xenografted with human MDA-MB-231-luc cells by UPLC/MS/MS analysis

[36] = Half life in Sprague-Dawley rat blood at 1 mg/kg, iv administered as bolus dose or 3 mg/kg, po administered via gastric gavage measured up to 20 hrs by UPLC/MS/MS spectrometry analysis; format: ADME, organism-based
[37] = Cmax in Balb-c nu/nu mouse at 30 mg/kg, po measured up to 7 hrs by UPLC/MS/MS spectrometry analysis; format: ADME, organism-based; set-up: dose 30 mg/kg, route oral; conditions: in vivo

SMILES: COc1ccc(Cn2c(CCC(=O)N[C@@H](C)c3ccc(Cl)cc3)nc3cccnc32)cc1
IC50 (Autotaxin [1]): 215 nM

Vd [2]: 0.3 L/kg
clearance [3]: 67 mL/min/kg
CLH [4]: 10 mL/min/g
half-life [5]: 9 min
IC50 (Autotaxin [1]): 1050 nM
SMILES: C[C@H](NC(=O)NCc1nc2cccnc2n1Cc1ccc(F)cc1)c1ccc(F)cc1

SMILES: C[C@H](NC(=O)CCc1nc2cccnc2n1Cc1ccc(OC(F)F)cc1)c1ccc(Cl)cc1
Vd [2]: 0.4 L/kg
clearance [3]: 62 mL/min/kg
CLH [4]: 52.8 mL/min/g
IC50 (Autotaxin [6]): 2 nM
half-life [5]: 22.2 min
IC50 (Autotaxin [1]): 44 nM

CLH [4]: 15.3 mL/min/g
IC50 (Autotaxin [1]): 5800 nM
SMILES: O=C(CCc1nc2cccnc2n1Cc1ccccc1)NCc1ccc(Cl)cc1

CLH [4]: 15.6 mL/min/g
IC50 (Autotaxin [1]): 821 nM
SMILES: C[C@H](NC(=O)COc1nc2cccnc2n1Cc1ccc(F)cc1)c1ccc(F)cc1

IC50 (Autotaxin [6]): 6770 nM
SMILES: CS(=O)(=O)c1ccc(CNC(=O)CCc2nc3cccnc3n2Cc2ccccc2)cc1

IC50 (Autotaxin [6]): 1250 nM
SMILES: O=C(CCc1nc2cccnc2n1Cc1ccccc1)NCc1ccccc1F

CLH [4]: 30.8 mL/min/g
IC50 (Autotaxin [6]): 444 nM
CLH [7]: 17.4 mL/min/g
IC50 (Autotaxin [1]): 9700 nM
SMILES: O=C(CCc1nc2cccnc2n1Cc1ccccc1)NCC1CCCCC1

CLH [4]: 23.9 mL/min/g
CLH [7]: 41.2 mL/min/g
SMILES: O=C(CCc1nc2cccnc2n1Cc1ccccc1)NCc1ccc(F)cc1

IC50 (Autotaxin [6]): 2970 nM
SMILES: COc1cccc(CNC(=O)CCc2nc3cccnc3n2Cc2ccccc2)c1

SMILES: C[C@H](NC(=O)CCc1nc2ccncc2n1Cc1ccc(OC(F)(F)F)cc1)c1ccc(F)cc1
IC50 (Autotaxin [1]): 32 nM

IC50 (Autotaxin [6]): 2430 nM
SMILES: O=C(CCc1nc2cccnc2n1Cc1ccccc1)NCc1ccsc1

Vd [8]: 0.4 L/kg
clearance [9]: 78 mL/min/kg
CLH [4]: 10.8 mL/min/g
half-life [10]: 12 min
IC50 (Autotaxin [1]): 99 nM
SMILES: C[C@H](NC(=O)COc1nc2cccnc2n1Cc1ccc(OC(F)(F)F)cc1)c1ccc(Cl)cc1

SMILES: C[C@H](NC(=O)C[S+]([O-])c1nc2cccnc2n1Cc1ccc(OC(F)(F)F)cc1)c1ccc(F)cc1 (stereo in doubt; 26a)
Vd [2]: 0.2 L/kg
clearance [3]: 82 mL/min/kg
CLH [4]: 28.6 mL/min/g
IC50 (Autotaxin [6]): 10 nM
half-life [5]: 13.2 min
IC50 (Autotaxin [1]): 178 nM

SMILES: C[C@H](NC(=O)C[S+]([O-])c1nc2cccnc2n1Cc1ccc(OC(F)(F)F)cc1)c1ccc(F)cc1 (stereo in doubt; 26b)
CLH [4]: 19.8 mL/min/g
IC50 (Autotaxin [6]): 178 nM
IC50 (Autotaxin [1]): 207 nM

SMILES: C[C@H](NC(=O)CCc1nc2cccnc2n1Cc1ccc(OC(F)(F)F)cc1)c1ccc(Cl)cc1 [CAMBRITAXESTAT]
IC50 (Autotaxin [11]): 38 nM
CLH [12]: 15 mL/min/g
Vd [2]: 1.3 L/kg
bioavailability at 7 h (in vivo [13]): 75%
half-life [14]: 54 min
AUC at 7 h [15]: 15.2 µM·h
EC50 (Mus musculus [16]): 46 nM
bioavailability at 20 h (in vivo [17]): 28%
%max (Mus musculus [18]): 89 - 93%
clearance [3]: 41 mL/min/kg
Activity (Mus musculus [19]): Non-Toxic
CLH [4]: 44.1 mL/min/g
IC50 (Autotaxin [6]): 1 nM
AUC at 7 h [20]: 3.2 µM·h
Cmax [21]: 3.8 µM
EC50 (Mus musculus [22]): 30 nM
%max (Mus musculus [23]): 89 - 93%
half-life [5]: 60 min
CLH [7]: 9.4 mL/min/g
half-life [24]: 78 min
%max (Mus musculus [25]): 89 - 93%
fraction unbound [26]: 0.018
Cmax [27]: 18.1 µM
half-life [28]: 84 min
AUC at 7 h [29]: 59.3 µM·h
%max (Mus musculus [30]): 89 - 93%
fraction unbound [31]: 0.02
clearance [32]: 19 mL/min/kg
EC50 (Mus musculus [33]): 13 nM
bioavailability at 7 h (in vivo [34]): 64%
EC50 (Mus musculus [35]): 8 nM
half-life [36]: 324 min
Cmax [37]: 10.9 µM
IC50 (Autotaxin [1]): 14 to 24 nM
